# Experimental data taken from EP1643252B1 (priority 2004, dated 2009).
# Assays:
# [1] = test system: cellular prion protein; details: from individual with no prion disease
# [2] = test system: PrP^Sc; details: brain homogenate of prion disease infected animal and human; biotinylated peptide on streptavidin magnetic beads
Sequence,capture of cellular prion protein [1],ability to capture PrP^Sc from brain homogenate [2]
AQKKDGKKRKRSRKESYSIYV [peptide-7],do not capture cellular prion protein,capture PrP^Sc
NWCKRGRKNCKTH [peptide-2],do not capture cellular prion protein,capture PrP^Sc
NYKKPKLG [peptide-3],do not capture cellular prion protein,capture PrP^Sc
WQPPRARI [peptide-1],do not capture cellular prion protein,capture PrP^Sc
YRGRYGYKGKYGYRG [peptide-6],do not capture cellular prion protein,capture PrP^Sc
YRGYRGYRGYRG [peptide-5],do not capture cellular prion protein,capture PrP^Sc
